“And” between values parts separate entries of the source, which are not always exact repeats. Equal entries are not always repeated. Where two headings read alike, the source gives them in different places.
Experiments:
[1] = system: Gram-positive pathogen identified at baseline; assay: Phase II SSTI trial: microbiological response; type: in vivo, human; conditions: for Success rate by pathogen: MITT at FU; for Microbiologic success rate: MITT population; for Eradication/presumed eradication rate, all organisms / S. aureus eradication rate: microbiologically-evaluable population at FU
Experimental: This randomized, controlled study evaluated the safety and efficacy of two dose regimens of dalbavancin.
There were 62 patients randomized into the study; all received at least one dose of study medication. Four study populations were evaluated for safety and efficacy and were defined as follows: The intent-to-treat (ITT) population included all patients who received at least one dose of study drug (all randomized study subjects).
Microbiological outcome, a secondary efficacy variable, was assessed in the subpopulation of patients who had microbiologically documented SSTI (i.e., at least one identified baseline pathogen). A microbiologic response was assessed for each Gram-positive pathogen identified at baseline (i.e., eradication, presumed eradication, persistence, presumed persistence). For patients for whom follow-up cultures were not performed, the microbiologic responses for baseline pathogens were presumed on the basis of the clinical response. Microbiologic response by patient at the EOT and FU visits was graded as success (i.e., all Gram-positive organisms eradicated or presumed eradicated) or failure (i.e., at least one Gram-positive organism persisted or presumed to have persisted, multiple pathogens with partial eradication). At both the EOT and FU visits, colonization and superinfection were assessed. At the FU visit, a patient's bacteriological response could also include recurrence.

[2] = Phase II SSTI trial: adverse events; type: in vivo, human
Experimental: Each patient who received at least one dose of study drug (ITT population) was evaluated for drug safety through monitoring of adverse events (AE), including abnormal clinical laboratory test results and vital signs. AE were rated by the investigator as to their severity (mild, moderate, severe, life-threatening), and by the relationship to the study drug (not related, unlikely related, possibly related, or probably related).

[3] = Phase II SSTI trial: dalbavancin plasma concentrations; type: in vivo, human; conditions: for Mean dalbavancin plasma concentration: two-dose regimen
[4] = system: S. aureus; assay: Dalbavancin MIC of baseline isolates; type: cell-based; conditions: All S. aureus
[5] = system: Group B streptococcus; assay: Dalbavancin MIC of baseline isolates; type: cell-based
[6] = system: Streptococcus pyogenes; assay: Dalbavancin MIC of baseline isolates; type: cell-based
[7] = system: Miscellaneous Streptococcus and nontypeable strains; assay: Dalbavancin MIC of baseline isolates; type: cell-based
[8] = system: Gram-positive isolates, including MRSA; assay: MIC against Gram-positive isolates / SSTI pathogens; type: cell-based; conditions: FU assessment
[9] = Pharmacokinetics and renal excretion in healthy subjects; type: in vivo, human
Experimental: Blood samples were drawn into heparinized tubes and centrifuged. Plasma was separated and stored frozen at −20° C. until time of assay. Plasma and urine samples were assayed for dalbavancin using validated LC/MS/MS methods. […] The peak concentration (Cmax) values were obtained directly from the observed data. The area under the plasma concentration-time curve (AUC) was calculated using the linear trapezoidal rule. Clearance (CL) was computed as dose/AUC. The elimination half life (t1/2) was estimated by linear regression of the log-linear portion of the log concentration versus time curve. Estimates of the volume of distribution (Vz) was calculated using the regression parameters, while the volume of distribution at steady state (Vss) was calculated from the area under the first moment curve (AUMC) multiplied by the dose and divided by AUC. The cumulative amount of dalbavancin excreted in urine was determined as the integrand of the urine excretion rate (AURC). CLR, or renal clearance, was calculated as the ratio: CLR=AURC/AUC.

[10] = molecular target: human α-glycoprotein; assay: Protein binding by isothermal titration microcalorimetry; conditions: for apparent binding affinity Ka: pH 7.4; for Calculated percent binding: α-glycoprotein […]10^−5M
Experimental: Integrated heat effects, after correction for heats of dilution, were analyzed by non-linear regression using a simple single-site binding model with the standard Microcal ORIGIN software package. Raw data (μcal/sec) for each injection were integrated to give the total heat effect per addition, then divided by amount of injectant to give kcal/mole of injectant. The same integration was applied for control dilution effects, and this was subtracted from the actual titration data. This provided a differential of the binding curve in which the extent of binding is proportional to the total heat liberated (or absorbed). This was then analyzed by non-linear regression methods in terms of various standard binding models.

[11] = Stability of dalbavancin in plasma; type: in vitro ADME, human
Experimental: A quality control standard of 1.5 μg/ml was prepared by spiking human plasma with an appropriate volume of a 50 μg/ml solution.

[12] = molecular target: HSA (Homo sapiens, UniProt P02768); assay: MALDI-TOF mass spectrometry of protein-dalbavancin complexes; type: binding; conditions: very high dalbavancin:protein ratios (1:2, 1:10)
Experimental: The samples were prepared for analysis using the dried droplet technique. Spectra were obtained on a BRUKER FLEX III, tof mass spectrometer previously tuned and calibrated using standard bovine serum albumin, acquiring and averaging spectra generated by 200 laser shots. Matrix: 9 parts of DHB-9 (2,5-dihydroxy-benzoic acid) saturated in acetonitrile/H2O (50:50), 1 part of sinapinic acid saturated in acetonitrile/H2O (50:50). 0.5 μl of sample solution and 0.5 μl of matrix solution were mixed and placed on the laser target. [00179]

[13] = ESI-MS of multimers in solution
Experimental: Experiments were performed using an Applied Biosystem API III+mass spectrometer equipped with a TurboIonSpray source, a Triple Quadrupole analyzer, operating in positive ion mode.
The mass spectra were obtained in electrospray positive mode on a Finnigan LCQDeca ion trap instrument previously tuned and calibrated in electrospray mode using Ultramark 1621, caffeine and MRFA (L-metionyl-arginyl-phenilalanyl-arginine).
The mass spectra were obtained in electrospray positive mode on a Finnigan LCQ^Deca ion trap instrument previous tuned and calibrated in electrospray mode using Ultramark 1621, caffeine and MRFA (L-metionyl-arginyl-phenilalanyl-arginine).

[14] = system: N,N′-diacetyl-Lys-D-Ala-D-Ala; assay: ITC of binding to tri-peptide, with and without HSA
[15] = MITT isolates of single-dose group
[16] = MITT isolates of standard of care group
[17] = MITT isolates of two-dose group

HSA, sequence (P02768 25-609): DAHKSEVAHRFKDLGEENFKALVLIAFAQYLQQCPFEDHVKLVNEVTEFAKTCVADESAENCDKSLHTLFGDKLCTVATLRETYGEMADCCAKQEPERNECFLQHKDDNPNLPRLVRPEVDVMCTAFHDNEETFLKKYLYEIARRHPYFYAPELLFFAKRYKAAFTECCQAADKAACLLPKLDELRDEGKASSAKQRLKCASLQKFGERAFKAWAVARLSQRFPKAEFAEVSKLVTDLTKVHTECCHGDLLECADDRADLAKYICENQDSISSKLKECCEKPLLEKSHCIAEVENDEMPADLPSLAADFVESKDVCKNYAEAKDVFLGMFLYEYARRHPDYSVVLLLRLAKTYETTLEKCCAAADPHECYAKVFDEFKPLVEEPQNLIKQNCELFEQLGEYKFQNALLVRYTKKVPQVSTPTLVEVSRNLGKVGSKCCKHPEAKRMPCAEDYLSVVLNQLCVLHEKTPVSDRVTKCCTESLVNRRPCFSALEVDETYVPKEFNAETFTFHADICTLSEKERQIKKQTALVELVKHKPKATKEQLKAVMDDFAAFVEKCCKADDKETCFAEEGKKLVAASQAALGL

CN[C@H]1C(=O)N[C@@H]2Cc3ccc(cc3)Oc3cc4cc(c3O[C@@H]3O[C@H](C(=O)O)[C@@H](O)[C@H](O)[C@H]3NC(=O)CCCCCCCCC(C)C)Oc3ccc(cc3Cl)[C@@H](O)[C@@H]3NC(=O)[C@H](NC(=O)[C@@H]4NC(=O)[C@@H](NC2=O)c2cc(cc(O)c2Cl)Oc2cc1ccc2O)c1ccc(O)c(c1)-c1c(O[C@H]2O[C@H](CO)[C@@H](O)[C@H](O)[C@@H]2O)cc(O)cc1[C@@H](C(=O)NCCCN(C)C)NC3=O [Dalbavancin]
Success rate by pathogen ([1]; All S. aureus, single-dose (1100 mg)): 5/13 (38%)
Success rate by pathogen ([1]; All S. aureus, two-dose (1000/500 mg)): 9/11 (82%)
Microbiologic success rate ([1]; EOT, single-dose (1100 mg)): 5/14 (35.7) %
Microbiologic success rate ([1]; EOT, two-dose (1000/500 mg)): 10/13 (76.9) %
Microbiologic success rate ([1]; FU, single-dose (1100 mg)): 3/14 (21.4) %
Microbiologic success rate ([1]; FU, two-dose (1000/500 mg)): 9/13 (69.2) %
Success rate by pathogen ([1]; Methicillin-sensitive S. aureus, single-dose (1100 mg)): 2/7 (29%)
Success rate by pathogen ([1]; Methicillin-sensitive S. aureus, two-dose (1000/500 mg)): 5/6 (83%)
Success rate by pathogen ([1]; Miscellaneous streptococcus species, single-dose (1100 mg)): 2/3 (67%)
Success rate by pathogen ([1]; Miscellaneous streptococcus species, two-dose (1000/500 mg)): 4/4 (100%)
Success rate by pathogen ([1]; Total organisms, single-dose (1100 mg)): 7/16 (43.8%)
Success rate by pathogen ([1]; Total organisms, two-dose (1000/500 mg)): 14/16 (87.5%)
Eradication/presumed eradication rate, all organisms ([1]; single-dose): 58%
S. aureus eradication rate ([1]; single-dose): 50%
Eradication/presumed eradication rate, all organisms ([1]; two-dose): 92%
S. aureus eradication rate ([1]; two-dose): 90%
Clinically significant hepatotoxicity or nephrotoxicity ([2]; both dalbavancin regimens): no evidence
Tolerability ([2]; both doses): well tolerated
Mean dalbavancin plasma concentration (mean±SD) ([3]; single-dose regimen, Study day 10): 25.2 ± 4.8 mg/L
Mean dalbavancin plasma concentration ([3]; Study day 8 (prior to the second dose)): 30.4 ± 8.2 mg/L
Mean dalbavancin plasma concentration ([3]; Study day 20): 21.2 ± 10.0 mg/L
Mean dalbavancin plasma concentration ([3]; Study day 34): 9.0 ± 4.4 mg/L
Dalbavancin MIC [4, 15]: (0.12) mg/L
Dalbavancin MIC range [4, 16]: (0.016-0.25) mg/L
Dalbavancin MIC [4, 17]: (0.12) mg/L
Dalbavancin MIC [5, 16]: (0.016) mg/L
Dalbavancin MIC [5, 17]: (0.016) mg/L
Dalbavancin MIC [6, 16]: (0.016) mg/L
Dalbavancin MIC [6, 17]: (0.016) mg/L
Dalbavancin MIC [7, 15]: (0.016) mg/L
Dalbavancin MIC [7, 16]: (0.016) mg/L
Dalbavancin MIC [7, 17]: (0.016) mg/L
Change in dalbavancin MIC of isolates that persisted [8]: no change
peak concentration in man ([9]; human, in vivo): ~165 µM
CLR ([9]; single 1000 mg IV, mean): 0.018 L/h
VZ ([9]; single 1000 mg IV, mean): 16.0 L
plasma concentration maintained for at least seven days ([9]; single intravenous infusion of 1000 mg): above 45 mg/l
apparent binding affinity Ka ([10]; 25° C.): 1.84 (±0.36) ×10^5 M^−1
apparent binding affinity Ka ([10]; 37° C.): 4.8 (±2.3) ×10^5 M^−1
Calculated percent binding ([10]; antibiotic 1 μM): 73.0%
Calculated percent binding ([10]; antibiotic 500 μM): 5.9%
Stability in processed plasma samples ([11]; 24 hours at room temperature): stable
Stability in human plasma, detectable concentration ([11]; three cycles of freeze-thaw, 1.5 and 90 μg/ml): stable
complex with HSA observed by MALDI-TOF [12]: 2 molecules of dalbavancin per protein molecule
Multimers in solution (ESI-MS) [13]: presence of dalbavancin multimers
population ratio of multimer to monomer vs concentration ([13]; 20, 40, 60, and 80 μg/mL): increases with increasing concentration
population ratio of multimer to monomer vs ionic strength ([13]; ammonium formate 5, 50, 100 mM, pH 5, increase in buffer concentration): decrease
population ratio of multimer to monomer vs pH ([13]; pH 2.5 to 5.5): increases with increasing pH
weaker binding affinity than in the absence of HSA ([14]; 25° C., plateau at high HSA): 10-12 ×
Kass ([14]; T 25 ° C., [HSA] 104 μM): 34900 M⁻¹
Kass ([14]; T 25 ° C., [HSA] 288 μM): 31000 M⁻¹
Kass ([14]; T 25 ° C., [HSA] 430 μM): 28400 M⁻¹
Kass ([14]; T 37 ° C., [HSA] 0 μM): 130000 M⁻¹ and 110000 M⁻¹
Kass ([14]; T 37 ° C., [HSA] 516 μM): 9568 M⁻¹
Kd ([14]; read-out: Kdiss (preliminary experiments), absence of serum proteins, depending on temperature): 1 to 10 µM
Kd ([14]; read-out: Kdiss, T 25 ° C., [HSA] 288 μM): 32.3 µM
Kd ([14]; read-out: Kdiss, T 37 ° C., [HSA] 0 μM): 7.69 µM and 9.09 µM
Kd ([14]; read-out: Kdiss, T 37 ° C., [HSA] 516 μM): 105 µM

— patent US20050004011A1, “Compositions and methods for treating bacterial infections with protein-dalbavancin complexes” (priority 2002, published 2005)
